Tests used:
[1] = compound: CN1CC[C@H](c2c(O)cc(O)c3c(=O)cc(-c4ccccc4Cl)oc23)[C@H](O)C1 [Flavopiridol]; assay: GR value, 72 h; higher = faster growth (1 = untreated, <0 = killing);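 note: breast cancer and non-malignant breast epithelial lines, nine half-log doses, viable cells counted by Hoechst and LIVE/DEAD dye imaging versus time-zero plates and DMSO controls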
[2] = compound: C=CC(=O)Nc1ccc(C(=O)Nc2[nH]nc3c2CN(C(=O)N[C@H](CN(C)C)c2ccccc2)C3(C)C)cc1 [YKL-5-124]; assay: as above
[3] = compound: CCc1cnn2c(NCc3ccc[n+]([O-])c3)cc(N3CCCC[C@H]3CCO)nc12; assay: as above
[4] = compound: CC(=O)c1c(C)c2cnc(Nc3ccc(N4CCNCC4)cn3)nc2n(C2CCCC2)c1=O; assay: as above
[5] = compound: CN(C)C/C=C/C(=O)Nc1ccc(C(=O)N2CCC[C@@H](Nc3ncc(Cl)c(-c4c[nH]c5ccccc45)n3)C2)cc1 [THZ531]; assay: as above
[6] = compound: CN(C)C/C=C/C(=O)Nc1ccc(C(=O)Nc2cccc(Nc3ncc(Cl)c(-c4c[nH]c5ccccc45)n3)c2)cc1 [THZ1]; assay: as above
[7] = compound: CN(C)C(=O)c1cc2cnc(Nc3ccc(N4CCNCC4)cn3)nc2n1C1CCCC1 [LEE011/Ribociclib]; assay: as above
[8] = compound: CCN1CCN(Cc2ccc(Nc3ncc(F)c(-c4cc(F)c5nc(C)n(C(C)C)c5c4)n3)nc2)CC1; assay: as above
[9] = compound: CC(=O)O[C@H]1C(=O)[C@@]2(C)[C@H]([C@H](OC(=O)c3ccccc3)[C@]3(O)C[C@H](OC(=O)[C@H](O)[C@@H](NC(=O)c4ccccc4)c4ccccc4)C(C)=C1C3(C)C)[C@]1(OC(C)=O)CO[C@@H]1C[C@@H]2O [Paclitaxel]
[10] = compound: O=C(CCCCCCC(=O)Nc1ccccc1)NO [Vorinostat]
[11] = compound: NC1(C(=O)N[C@@H](CCO)c2ccc(Cl)cc2)CCN(c2nc[nH]c3nccc2-3)CC1 [AZD5363]
[12] = compound: CC(=O)c1c(C)c2cnc(Nc3ccc(N4CCN(CCOCCOCCOCCNC(=O)COc5cccc6c5C(=O)N(C5CCC(=O)NC5=O)C6=O)CC4)cn3)nc2n(C2CCCC2)c1=O [BSJ-03-123]
[13] = compound: CCc1cnn2c(NCc3ccc[n+]([O-])c3)cc(N3CCCC[C@H]3CCO)nc12
[14] = compound: Nc1cc(C(F)(F)F)c(-c2cc(N3CCOCC3)nc(N3CCOCC3)n2)cn1 [Buparlisib/NVP-BKM120]
[15] = compound: CC1(CCN(CC1)C2=CN=C(C(=N2)N)C3=C(C(=CC=C3)Cl)Cl)N [SHP099]
[16] = compound: COc1cc2nccc(Oc3ccc(NC(=O)C4(C(=O)Nc5ccc(F)cc5)CC4)cc3)c2cc1OC [Cabozantinib]
[17] = compound: CCN1CCN(Cc2ccc(Nc3ncc(F)c(-c4cc(F)c5nc(C)n(C(C)C)c5c4)n3)nc2)CC1
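Throughout, for GR50, 72 h: breast cancer and non-malignant breast epithelial cell lines, Deep Dye Drop or Dye Drop imaging, nine half-log doses, GR normalized to time-zero plates and DMSO-only controls.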

Q: With HCC38 as the cell line, how does the GR value ([1]; 0.0001 µM) read?
A: Its GR value is 0.986 GR.

Q: What about the GR value ([1]; 0.0003162 µM) of the same cell line?
A: Its GR value is 0.927 GR.

Q: And the GR value ([1]; 0.001 µM)?
A: Its GR value is 0.962 GR.

Q: What about the GR value ([1]; 0.003162 µM) of the same cell line?
A: The GR value was 0.855 GR.

Q: And the GR value ([1]; 0.01 µM)?
A: Its GR value is 0.897 GR.

Q: And the GR value ([1]; 0.03162 µM)?
A: Its GR value is 0.814 GR.

Q: What about the GR value ([1]; 0.1 µM) of the same cell line?
A: Its GR value is 0.591 GR.

Q: What about the GR value ([1]; 0.3162 µM) of the same cell line?
A: The GR value was 0.182 GR.

Q: And the GR value ([1]; 1 µM)?
A: The GR value was -0.439 GR.

Q: What about the GR value ([2]; 0.001 µM) of the same cell line?
A: The GR value was 0.436 GR.

Q: What about the GR value ([2]; 0.003162 µM) of the same cell line?
A: The GR value was 0.282 GR.

Q: And the GR value ([2]; 0.01 µM)?
A: The GR value was 0.219 GR.

Q: And the GR value ([2]; 0.03162 µM)?
A: Its GR value is 0.111 GR.

Q: What about the GR value ([2]; 0.1 µM) of the same cell line?
A: The GR value was 0.0509 GR.

Q: What about the GR value ([2]; 0.3162 µM) of the same cell line?
A: Its GR value is -0.0003 GR.

Q: What about the GR value ([2]; 1 µM) of the same cell line?
A: The GR value was -0.0242 GR.

Q: And the GR value ([2]; 3.162 µM)?
A: The GR value was -0.079 GR.

Q: And the GR value ([2]; 10 µM)?
A: The GR value was -0.393 GR.

Q: What about the GR value ([3]; 0.0001 µM) of the same cell line?
A: Its GR value is 0.989 GR.

Q: What about the GR value ([3]; 0.0003162 µM) of the same cell line?
A: Its GR value is 1.05 GR.

Q: And the GR value ([3]; 0.001 µM)?
A: Its GR value is 1.05 GR.

Q: What about the GR value ([3]; 0.003162 µM) of the same cell line?
A: The GR value was 1.14 GR.

Q: What about the GR value ([3]; 0.01 µM) of the same cell line?
A: The GR value was 0.761 GR.

Q: What about the GR value ([3]; 0.03162 µM) of the same cell line?
A: The GR value was -0.374 GR.

Q: And the GR value ([3]; 0.1 µM)?
A: Its GR value is -0.453 GR.

Q: What about the GR value ([3]; 0.3162 µM) of the same cell line?
A: The GR value was -0.435 GR.

Q: And the GR value ([3]; 1 µM)?
A: The GR value was -0.453 GR.

Q: And the GR value ([4]; 0.0003162 µM)?
A: Its GR value is 1.03 GR.

Q: What about the GR value ([4]; 0.001 µM) of the same cell line?
A: Its GR value is 1.06 GR.

Q: What about the GR value ([4]; 0.003162 µM) of the same cell line?
A: The GR value was 0.926 GR.

Q: And the GR value ([4]; 0.01 µM)?
A: Its GR value is 0.889 GR.

Q: What about the GR value ([4]; 0.03162 µM) of the same cell line?
A: The GR value was 0.604 GR.

Q: What about the GR value ([4]; 0.1 µM) of the same cell line?
A: The GR value was 0.398 GR.

Q: What about the GR value ([4]; 0.3162 µM) of the same cell line?
A: The GR value was 0.31 GR.

Q: What about the GR value ([4]; 1 µM) of the same cell line?
A: The GR value was 0.239 GR.

Q: And the GR value ([4]; 3.162 µM)?
A: Its GR value is 0.133 GR.

Q: What about the GR value ([5]; 0.0001 µM) of the same cell line?
A: The GR value was 0.922 GR.

Q: What about the GR value ([5]; 0.0003162 µM) of the same cell line?
A: Its GR value is 1.03 GR.

Q: And the GR value ([5]; 0.001 µM)?
A: Its GR value is 1.04 GR.

Q: What about the GR value ([5]; 0.003162 µM) of the same cell line?
A: Its GR value is 0.998 GR.

Q: What about the GR value ([5]; 0.01 µM) of the same cell line?
A: Its GR value is 1.07 GR.

Q: What about the GR value ([5]; 0.03162 µM) of the same cell line?
A: Its GR value is 1.02 GR.

Q: And the GR value ([5]; 0.1 µM)?
A: The GR value was 0.765 GR.

Q: What about the GR value ([5]; 0.3162 µM) of the same cell line?
A: The GR value was 0.0587 GR.

Q: And the GR value ([5]; 1 µM)?
A: The GR value was -0.335 GR.

Q: What about the GR value ([6]; 0.0001 µM) of the same cell line?
A: Its GR value is 1.1 GR.

Q: What about the GR value ([6]; 0.0003162 µM) of the same cell line?
A: The GR value was 1.05 GR.

Q: What about the GR value ([6]; 0.001 µM) of the same cell line?
A: The GR value was 1.05 GR.

Q: What about the GR value ([6]; 0.003162 µM) of the same cell line?
A: Its GR value is 0.951 GR.

Q: And the GR value ([6]; 0.01 µM)?
A: The GR value was 0.724 GR.

Q: What about the GR value ([6]; 0.03162 µM) of the same cell line?
A: The GR value was 0.452 GR.

Q: What about the GR value ([6]; 0.1 µM) of the same cell line?
A: The GR value was -0.224 GR.

Q: What about the GR value ([6]; 0.3162 µM) of the same cell line?
A: Its GR value is -0.367 GR.

Q: What about the GR value ([6]; 1 µM) of the same cell line?
A: The GR value was -0.572 GR.

Q: What about the GR value ([7]; 0.001 µM) of the same cell line?
A: Its GR value is 0.807 GR.

Q: What about the GR value ([7]; 0.003162 µM) of the same cell line?
A: The GR value was 0.769 GR.

Q: What about the GR value ([7]; 0.01 µM) of the same cell line?
A: The GR value was 0.692 GR.

Q: What about the GR value ([7]; 0.03162 µM) of the same cell line?
A: Its GR value is 0.727 GR.

Q: What about the GR value ([7]; 0.1 µM) of the same cell line?
A: The GR value was 0.577 GR.

Q: And the GR value ([7]; 0.3162 µM)?
A: The GR value was 0.511 GR.

Q: And the GR value ([7]; 1 µM)?
A: Its GR value is 0.532 GR.

Q: What about the GR value ([7]; 3.162 µM) of the same cell line?
A: The GR value was 0.4 GR.

Q: What about the GR value ([7]; 10 µM) of the same cell line?
A: Its GR value is 0.239 GR.

Q: What about the GR value ([8]; 0.001 µM) of the same cell line?
A: Its GR value is 0.924 GR.

Q: And the GR value ([8]; 0.003162 µM)?
A: Its GR value is 0.846 GR.

Q: And the GR value ([8]; 0.01 µM)?
A: The GR value was 0.738 GR.

Q: And the GR value ([8]; 0.03162 µM)?
A: Its GR value is 0.452 GR.

Q: What about the GR value ([8]; 0.1 µM) of the same cell line?
A: The GR value was 0.275 GR.

Q: What about the GR value ([8]; 0.3162 µM) of the same cell line?
A: Its GR value is 0.206 GR.

Q: What about the GR value ([8]; 1 µM) of the same cell line?
A: Its GR value is 0.122 GR.

Q: What about the GR value ([8]; 3.162 µM) of the same cell line?
A: Its GR value is -0.0767 GR.

Q: And the GR value ([8]; 10 µM)?
A: The GR value was -0.335 GR.

Q: And the “GR50, 72 h” value [9]?
A: Its value is 0.00147 µM.

Q: What about the “GR50, 72 h” value [10] of the same cell line?
A: Its value is 0.96 µM.

Q: What about the “GR50, 72 h” value [11] of the same cell line?
A: Its value is greater than 10 µM.

Q: What about the “GR50, 72 h” value [12] of the same cell line?
A: Its value is 0.0453 µM.

Q: What about the “GR50, 72 h” value [13] of the same cell line?
A: Its value is 0.0126 µM.

Q: And the “GR50, 72 h” value [14]?
A: The value was 1.27 µM.

Q: What about the “GR50, 72 h” value [15] of the same cell line?
A: The value was greater than 10 µM.

Q: What about the “GR50, 72 h” value [16] of the same cell line?
A: Its value is 7.6 µM.

Q: What about the “GR50, 72 h” value [17] of the same cell line?
A: Its value is 0.0446 µM.

Reference: the supplement of paper PMC9663587
